Measured values from US6653455B1, “Crystallization of doxorubicin hydrochloride” (Mercian Corporation, priority 1998, dated 2003).
Structures can show the parent of a compound that is named as a salt.

Assay: Hygroscopicity, cup method (weight change)
Type: physicochemical
Details: weight-increasing rate, 25° C., 50 to 60% RH, 15 minutes; crystals dried at 40° C. under vacuum; hydrochloride
Protocol: Determined by the following cup method. To be specific, about 15 to 20 mg of the sample was put in a cylindrical cup having a diameter of 6 mm and a depth of 6 mm and left standing at a fixed temperature (25° C.) and relative humidity (50 to 60% RH) for 15 minutes to measure a weight change, whereby the hygroscopicity was evaluated.
In the following respective examples, a weight-increasing rate of 0.40% or more is shown by an evaluation criterion that the hygroscopicity is large (−); a weight-increasing rate of 0.20% or more and less than 0.40% is shown by an evaluation criterion that the hygroscopicity is ;intermediate (±); and a weight-increasing rate of less than 0.20% is shown by an evaluation criterion that the hygroscopicity is small: (+).

SMILES | Hygroscopicity
COc1cccc2c1C(=O)c1c(O)c3c(c(O)c1C2=O)C[C@@](O)(C(=O)CO)C[C@@H]3O[C@H]1C[C@H](N)[C@H](O)[C@H](C)O1 [Example 3, doxorubicin hydrochloride] | − (a weight-increasing rate of 0.40% or more is shown by an evaluation criterion that the hygroscopicity is large (−))
COc1cccc2c1C(=O)c1c(O)c3c(c(O)c1C2=O)C[C@@](O)(C(=O)CO)C[C@@H]3O[C@H]1C[C@H](N)[C@H](O)[C@H](C)O1 [Example 18, doxorubicin hydrochloride] | − (a weight-increasing rate of 0.40% or more is shown by an evaluation criterion that the hygroscopicity is large (−))
COc1cccc2c1C(=O)c1c(O)c3c(c(O)c1C2=O)C[C@@](O)(C(=O)CO)C[C@@H]3O[C@H]1C[C@H](N)[C@H](O)[C@H](C)O1 [Example 14, doxorubicin hydrochloride] | ± (a weight-increasing rate of 0.20% or more and less than 0.40% is shown by an evaluation criterion that the hygroscopicity is ;intermediate (±))
COc1cccc2c1C(=O)c1c(O)c3c(c(O)c1C2=O)C[C@@](O)(C(=O)CO)C[C@@H]3O[C@H]1C[C@H](N)[C@H](O)[C@H](C)O1 [Example 31, doxorubicin hydrochloride] | + (a weight-increasing rate of less than 0.20% is shown by an evaluation criterion that the hygroscopicity is small: (+))
COc1cccc2c1C(=O)c1c(O)c3c(c(O)c1C2=O)C[C@@](O)(C(=O)CO)C[C@@H]3O[C@H]1C[C@H](N)[C@H](O)[C@H](C)O1 [Example 39, doxorubicin hydrochloride] | + (a weight-increasing rate of less than 0.20% is shown by an evaluation criterion that the hygroscopicity is small: (+))
COc1cccc2c1C(=O)c1c(O)c3c(c(O)c1C2=O)C[C@@](O)(C(=O)CO)C[C@@H]3O[C@H]1C[C@H](N)[C@H](O)[C@H](C)O1 [Example 36, doxorubicin hydrochloride] | ± (a weight-increasing rate of 0.20% or more and less than 0.40% is shown by an evaluation criterion that the hygroscopicity is ;intermediate (±))
COc1cccc2c1C(=O)c1c(O)c3c(c(O)c1C2=O)C[C@@](O)(C(=O)CO)C[C@@H]3O[C@H]1C[C@H](N)[C@H](O)[C@H](C)O1 [Example 27, doxorubicin hydrochloride] | ± (a weight-increasing rate of 0.20% or more and less than 0.40% is shown by an evaluation criterion that the hygroscopicity is ;intermediate (±))
COc1cccc2c1C(=O)c1c(O)c3c(c(O)c1C2=O)C[C@@](O)(C(=O)CO)C[C@@H]3O[C@H]1C[C@H](N)[C@H](O)[C@H](C)O1 [Example 54, doxorubicin hydrochloride] | + (a weight-increasing rate of less than 0.20% is shown by an evaluation criterion that the hygroscopicity is small: (+))
COc1cccc2c1C(=O)c1c(O)c3c(c(O)c1C2=O)C[C@@](O)(C(=O)CO)C[C@@H]3O[C@H]1C[C@H](N)[C@H](O)[C@H](C)O1 [Example 1, doxorubicin hydrochloride] | − (a weight-increasing rate of 0.40% or more is shown by an evaluation criterion that the hygroscopicity is large (−))
COc1cccc2c1C(=O)c1c(O)c3c(c(O)c1C2=O)C[C@@](O)(C(=O)CO)C[C@@H]3O[C@H]1C[C@H](N)[C@H](O)[C@H](C)O1 [Example 25, doxorubicin hydrochloride] | + (a weight-increasing rate of less than 0.20% is shown by an evaluation criterion that the hygroscopicity is small: (+))
COc1cccc2c1C(=O)c1c(O)c3c(c(O)c1C2=O)C[C@@](O)(C(=O)CO)C[C@@H]3O[C@H]1C[C@H](N)[C@H](O)[C@H](C)O1 [Example 15, doxorubicin hydrochloride] | − (a weight-increasing rate of 0.40% or more is shown by an evaluation criterion that the hygroscopicity is large (−))
COc1cccc2c1C(=O)c1c(O)c3c(c(O)c1C2=O)C[C@@](O)(C(=O)CO)C[C@@H]3O[C@H]1C[C@H](N)[C@H](O)[C@H](C)O1 [Example 8, doxorubicin hydrochloride] | − (a weight-increasing rate of 0.40% or more is shown by an evaluation criterion that the hygroscopicity is large (−))
